This note sets out measurements from patent publication US20040029871A1, “Pharmaceutical compounds for treating copd” (priority 2000, published 2004).

Structures are written as SMILES.

T1 sequence (P05164 279-745 limits assumed): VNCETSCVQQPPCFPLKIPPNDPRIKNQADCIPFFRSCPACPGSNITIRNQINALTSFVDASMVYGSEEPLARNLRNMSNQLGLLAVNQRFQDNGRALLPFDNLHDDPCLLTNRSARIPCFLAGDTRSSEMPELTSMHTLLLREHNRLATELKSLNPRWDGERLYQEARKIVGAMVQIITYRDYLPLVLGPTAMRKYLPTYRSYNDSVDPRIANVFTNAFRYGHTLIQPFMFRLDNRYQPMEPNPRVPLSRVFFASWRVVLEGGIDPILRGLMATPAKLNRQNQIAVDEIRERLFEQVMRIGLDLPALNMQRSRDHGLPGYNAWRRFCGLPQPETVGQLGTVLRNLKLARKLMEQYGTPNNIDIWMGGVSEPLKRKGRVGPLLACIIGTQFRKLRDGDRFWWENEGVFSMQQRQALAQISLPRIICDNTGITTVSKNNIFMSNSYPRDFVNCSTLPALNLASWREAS
T1 sequence (P05164 165-273 limits assumed): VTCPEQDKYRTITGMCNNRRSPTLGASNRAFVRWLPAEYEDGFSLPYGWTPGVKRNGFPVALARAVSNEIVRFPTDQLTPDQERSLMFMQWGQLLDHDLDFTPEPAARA

One test has as its system stimulated human neutrophils. The test can be described thus: functional human neutrophil assay, HOCl production by PMA-stimulated neutrophils. Type of test: cell-based. The following applies: 2x10^6 neutrophils, PMA 1 μg/ml, 15 min preincubation, 30 min at 37C, read-out: Inhibition of HOCl production by stimulated human neutrophils, pIC50 (converted). The procedure:
Here we describe the use of a functional human neutrophil assay to determine the effects of MPO inhibitors on the production of HOCl. This assay detects the production of HOCl from stimulated (e.g. PMA, LPS, fMLP, zymozan) human neutrophils. Human neutrophils were purified from fresh heparinised blood by density centrifugation on Polymorphprep (Nycomed). These neutrophils were used immediately after purification. A standard reaction mixture contained the following: 2×10^6 neutrophils, 140 mM NaCl, 5 mM taurine, 0.5 mM MgCl2, 1 mM CaCl2 and 1 mg/ml glucose. Test compounds were made up in DMSO and added to cells, with a final DMSO concentration of 0.5%. Test compounds were given 15 min preincubation at 37C with neutrophils prior to the addition of the PMA stimulant (1 μg/ml). The assay was then allowed to progress for another 30 min at 37C. At the end of the incubation, supernatants were collected by centrifugation and assayed for HOCl by using the stop/development reagent as above. All compounds were tested in duplicate with at least two separate determinations n=2 from two different donors.
As to `Nc1ccc(S(=O)(=O)c2ccc(N)cc2)cc1` [Dapsone], the IC50 is 20000 nM.

As to `COc1cc(NC(C)CCCN)c2ncccc2c1` (stereo not drawn) [Primaquine], the IC50 is 12600 nM.

For `Nc1ccc(S(N)(=O)=O)cc1` [Sulfanilamide], the IC50 is 15800 nM.

Regarding `Nc1ccc(S(=O)(=O)Nc2ccccn2)cc1` [Sulfapyridine], the IC50 is 31600 nM.

A further test has as its target T1, human MPO (Homo sapiens, UniProt P05164).
T1 construct: purchased Planta
Description: in vitro MPO assay measuring production of hypochlorus acid (HOCl). The format is biochemical.
Settings: not given
The procedure: Here we describe an in vitro MPO assay that was developed to assess inhibition of enzyme activity. Essentially the MPO assay was designed to measure the production of hypochlorus acid (HOCl), which is the key physiological product generated by the enzyme in vivo. An outline of the assay reactions is given: [drawing 5]
Compounds were preincubated with the MPO enzyme in buffer for about 15 min prior to start of reaction with H2O2. The whole reaction was carried out at room temperatutre for 10 min in a 96-well plate. […] All test concentrations were done in duplicated with at least two separate determinations n=2, unless otherwise stated. The inhibitory concentration for a compound is presentated as pIC50, which is −log IC50.
`COc1ccc2[nH]cc(CCN)c2c1` [5-Methoxytryptamine] showed an IC50 of 631 nM.

For the molecule `c1ccc2[nH]ccc2c1` [Indole], the IC50 is 2000 nM.

Staying with this test, now noted: 2.5 nM purified human MPO, 100 uM H2O2, pH 6.5, 15 min preincubation, 10 min at room temperature; pIC50 = -log IC50.
In the case of `COc1ccc2[nH]cc(CCO)c2c1` [5-Methoxytryptophol], the “Inhibition of human MPO-HOCl production, pIC50” value was 6.3.

Consider `Nc1ccc(S(=O)(=O)Nc2nccs2)cc1` [N-1(2 thiazolyl)-sulfanilamide], for which the “Inhibition of human MPO-HOCl production, pIC50” value is recorded as 6.0.

Still in this test, the particulars now being: human MPO.
On to `Nc1ccc(S(=O)(=O)c2ccc(N)cc2)cc1` [Dapsone], for which the “relative potency as inhibitor of HOCl production by human MPO (in words)” value is “most potent inhibitor of the sulfones/sulfonamides tested”.

The test is the same for the next values; noted with them: read-out: Inhibition of human MPO-HOCl production, pIC50 (converted).
As for `CCOC(=O)c1cccc(N)c1` [3-Aminobenzoic acid ethylester], the IC50 was 631 nM.

`Cc1c[nH]c2ccccc12` [3-Methylindole]: the IC50 is 1260 nM.

On to `COc1ccc2[nH]ccc2c1` [5-Methoxyindole], for which the IC50 is 2510 nM.

As to `COc1ccc2cc[nH]c2c1` [6-Methoxyindole], the IC50 is 1580 nM.

Take `Nc1ccc(S(=O)(=O)c2ccc(N)cc2)cc1` [Dapsone]: the IC50 is 631 nM.

Consider `COc1ccc2[nH]cc(CCNC(C)=O)c2c1` [Melatonin], for which the IC50 is 794 nM.

Take `CN1C(C(=O)Nc2ccccn2)=C(O)c2ccccc2S1(=O)=O` [Piroxicam]: the IC50 is 2510 nM.

In the case of `Nc1ccc(S(=O)(=O)Nc2ncccn2)cc1` [Sulfadiazine], the IC50 is 6310 nM.

`[H]/N=C(/N)NS(=O)(=O)c1ccc(N)cc1` [Sulfaguanidine]: the IC50 was 3160 nM.

As for `Nc1ccc(S(N)(=O)=O)cc1` [Sulfanilamide], the IC50 was 1000 nM.

Take `CC(=O)Nc1ccc(S(=O)(=O)Nc2ccc([N+](=O)[O-])cc2)cc1` [Sulfanitran]: the IC50 is 7940 nM.

For `Nc1ccc(S(=O)(=O)Nc2ccccn2)cc1` [Sulfapyridine], the IC50 was 2000 nM.

In the case of `Cc1noc(NS(=O)(=O)c2ccc(N)cc2)c1C` [Sulfisoxazole], the IC50 is 6310 nM.

Turning to `COc1cc(C=O)ccc1O` [Vanillin], the IC50 was 7940 nM.

Turning to `N=C(N)c1ccc(N)cc1` [p-Aminobenzamidine], the IC50 is 2510 nM.
